The values that follow come from publication PMC7413516, “Antidepressant-like activity and safety profile evaluation of 1H-imidazo[2,1-f]purine-2,4(3H,8H)-dione derivatives as 5-HT1A receptor partial agonists” (PLoS ONE, 2020).

On the set-up of data set [1]: method as in PMID 27353547. The following applies: ref [8]; cited from earlier work.
Data set [2] deals with T1, human serotonin 5-HT1A receptor (Homo sapiens, UniProt P08908).
T1 sequence (P08908 1-422): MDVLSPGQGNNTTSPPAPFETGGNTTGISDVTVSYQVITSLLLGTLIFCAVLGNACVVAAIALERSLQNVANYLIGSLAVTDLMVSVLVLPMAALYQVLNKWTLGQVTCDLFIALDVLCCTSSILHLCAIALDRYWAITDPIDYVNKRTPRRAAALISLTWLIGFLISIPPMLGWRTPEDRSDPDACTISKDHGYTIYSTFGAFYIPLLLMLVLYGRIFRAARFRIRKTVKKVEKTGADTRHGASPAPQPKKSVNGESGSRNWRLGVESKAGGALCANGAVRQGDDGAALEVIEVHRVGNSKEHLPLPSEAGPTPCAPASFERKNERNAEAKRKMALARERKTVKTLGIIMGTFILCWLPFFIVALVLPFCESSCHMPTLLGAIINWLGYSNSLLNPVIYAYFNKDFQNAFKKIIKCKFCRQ
Put plainly: ERK1/2 phosphorylation (SureFire Alpha LISA, CHO-K1 5HT1AR cells). The settings on record: for Emax: CHO-K1, read-out: Emax (%) ± SEM, agonist mode; for decreased efficacy as compared to 5-HT / increased potency as compared to 5-HT: p-ERK1/2. On the technique in general: Bead proximity is the source of the signal in Alpha formats.
Description: CHO-K1 cell line transfected with 5-HT1A receptor, were commercially obtained from Perkin Elmer (Cat. No. ES-310-C, Lot Number M2W-C1). Cells were cultured according to manufacturer’s instruction. […] Geneticin-resistant clones were obtained by limit dilution and compared for receptor expression levels using a radioligand binding assay. The clone with the highest receptor expression level was selected for characterization in binding and functional assays. […] Corresponding Protein Sequence: Identical to GenBank NP_000515.2. Receptor expression level (BMAX): Estimated to be 3.7 ± 2.3 pmol/mg protein, using [3H] […] This cell line tested negative for mycoplasma.

The nature of data set [3]: Plasma glucose, triglyceride and cholesterol levels after repeated administration. The settings on record: mice, AZ-853 0.625, AZ-861 1.25 mg/kg b.w./day. It counts as in vivo, Swiss albino mice. As for the experimental part: (§1) The Swiss albino mice were used in the experiment. AZ-853 and AZ-861 were injected once daily for 16 consecutive days. On the 1st and 15th day the administration of the compounds, 18-h spontaneous animal activity was registered (see below). FST, as described earlier, was performed on the 14th day just before the next treatment. To ensure that the effects observed in FST are not the result of increased motility of animals, on the 13th day, just before the next administration, the locomotor activity was measured as described earlier, from 2 to 6 min after test start, i.e. in the period identical to the duration of FST. Blood and organ collection was performed on the 17th day at 24 h after the last dose and fasting.
(§2) Blood samples were collected from the Swiss albino mice 24 h after the last administration of the tested compounds or vehicle. To determine glucose, cholesterol and triglyceride levels in the plasma, standard enzymatic spectrophotometric tests (Biomaxima S.A. Lublin, Poland) were used. In the presence of appropriate enzyme, the substrate was converted to a colored compound. Absorbance was measured at a wavelength of 500 nm. To determine alanine aminotransferase (ALAT) or γ-glutamyl transpeptidase (γ-GTP) activities in the plasma, the standard enzymatic spectrophotometric test (Biomaxima S.A.) was used. Absorbance was measured at 340 nm (ALAT) or 405 nm (γ-GTP).

Data set [4] addresses serotonergic 5-HT1A receptor (5-HT1AR). Set-up: method as in PMID 27353547. The settings on record: ref [8]; cited from earlier work.
The nature of data set [5]: Liver, kidney and heart weight after repeated administration. It counts as in vivo, Swiss albino mice. The settings on record: mice, AZ-853 0.625 mg/kg, AZ-861 1.25 mg/kg. As for the experimental part: as §1
The body weight was measured daily immediately prior to administration of the drugs. On the 17th day, the blood was collected from the Swiss albino mice sacrificed by decapitation 20 min after i.p. administration of heparin (2500 units/mouse) and then centrifuged at 600 × g (15 min, 4°C) to separate plasma. The liver, heart, and kidney were also collected and weighed.

For data set [6], the target named is T2, muscarinic M3 receptor (M3R) (Cavia porcellus, UniProt H0W1Z3).
T2 construct: from tissue; host or cells: isolated guinea pig ileum
T2 sequence (H0W1Z3 1-590): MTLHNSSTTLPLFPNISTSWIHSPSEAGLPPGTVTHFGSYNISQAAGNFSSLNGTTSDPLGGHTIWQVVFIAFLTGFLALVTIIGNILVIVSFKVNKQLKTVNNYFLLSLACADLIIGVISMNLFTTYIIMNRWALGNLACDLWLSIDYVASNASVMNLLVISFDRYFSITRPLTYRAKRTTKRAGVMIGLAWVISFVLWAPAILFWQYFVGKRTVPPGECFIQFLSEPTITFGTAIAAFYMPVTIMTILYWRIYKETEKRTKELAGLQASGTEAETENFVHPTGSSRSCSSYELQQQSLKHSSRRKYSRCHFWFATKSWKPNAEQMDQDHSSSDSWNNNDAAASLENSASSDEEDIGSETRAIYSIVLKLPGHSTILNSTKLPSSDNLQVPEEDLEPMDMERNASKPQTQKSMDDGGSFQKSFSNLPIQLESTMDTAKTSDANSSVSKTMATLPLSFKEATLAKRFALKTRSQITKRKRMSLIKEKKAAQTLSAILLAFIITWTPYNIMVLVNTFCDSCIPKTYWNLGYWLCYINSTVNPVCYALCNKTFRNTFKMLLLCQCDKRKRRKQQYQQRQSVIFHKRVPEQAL
Nature of the data set: Smooth muscle relaxant assay: carbachol-induced contraction of isolated guinea pig ileum. The following applies: isolated guinea pig small intestine, carbachol 100 μM. As for the experimental part:
(§3) The experiment was carried out according to the method described previously. Male guinea pigs were sacrificed by cervical dislocation. The ileum was rapidly removed, rinsed, and cut into segments of 1.5–2.0 cm length. The tissues were mounted on a jacketed 20 mL organ bath (Tissue Organ Bath System; 750 TOBS, DMT, Denmark) filled with Krebs’s solution (NaCl 120 mM, KCl 5.6 mM, MgCl2 2.2 mM, CaCl2 2.4 mM, NaHCO3 19 mM, glucose 10 mM). The bath was aerated with 95 % O2/5 % CO2 and heated at 37°C. During the 60-min incubation period, the organ was rinsed 4 times with fresh Krebs’s buffer, and the tissues were also pre-stimulated by 60 mM KCl solution. The submaximal contraction induced by histamine (Sigma Aldrich) (2 μM) and carbachol (Sigma Aldrich) (100 μM) was evaluated in the presence and absence of the tested compounds. Amplitudes of contraction values were measured in 4 independent experiments.

In data set [7] the target is T3, histaminic H1 receptor (H1R) (Cavia porcellus, UniProt P31389).
T3 construct: from tissue; host or cells: isolated guinea pig ileum
T3 sequence (P31389 whole entry): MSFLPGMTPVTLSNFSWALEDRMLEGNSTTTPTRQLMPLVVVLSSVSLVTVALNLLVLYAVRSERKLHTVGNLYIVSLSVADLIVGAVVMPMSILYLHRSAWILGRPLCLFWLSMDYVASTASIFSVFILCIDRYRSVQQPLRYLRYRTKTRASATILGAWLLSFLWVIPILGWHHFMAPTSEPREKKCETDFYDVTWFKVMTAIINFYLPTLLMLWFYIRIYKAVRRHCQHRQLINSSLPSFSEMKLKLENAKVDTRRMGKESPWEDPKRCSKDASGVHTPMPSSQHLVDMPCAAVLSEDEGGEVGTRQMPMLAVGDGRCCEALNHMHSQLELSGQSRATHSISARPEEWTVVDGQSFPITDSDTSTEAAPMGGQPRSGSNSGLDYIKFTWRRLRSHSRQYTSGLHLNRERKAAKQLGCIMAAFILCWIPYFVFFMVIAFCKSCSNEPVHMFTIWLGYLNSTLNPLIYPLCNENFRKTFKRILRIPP
Put plainly: Smooth muscle relaxant assay: histamine-induced contraction of isolated guinea pig ileum. The settings on record: isolated guinea pig small intestine, histamine 2 μM. As for the experimental part:
as §3

Data set [8] can be described thus: Plasma ALAT and γ-GTP activity after repeated administration. It counts as in vivo, Swiss albino mice. The settings on record: mice, AZ-853 0.625, AZ-861 1.25 mg/kg b.w./day. On the procedure: as §1, §2

SMILES strings stand for the structures.

The EC50 is the midpoint of the concentration-response curve. Higher therefore signals a need for much substance. Usually Emax stands for the size of the effect at its maximum, as opposed to the concentration needed. The Ki is a dissociation constant, usually derived from enzyme kinetics or from competition with a known ligand. As usually defined, the inhibition is the change of the read-out against control, counted positive when it falls.

With `Cn1c(=O)c2c(nc3n(CCCCN4CCN(c5ccccc5F)CC4)ccn23)n(C)c1=O` [AZ-853, 8-(4-(4-(2-fluorophenyl)piperazin-1-yl)butyl)-1,3-dimethyl-1H-imidazo[2,1-f]purine-2,4(3H,8H)-dione], the estimated log p in data set [1] is recorded as 5.34. For the same molecule, in data set [2], the EC50 was 6.61 nM, the maximum response (Emax) worked out at 60 ± 2%, the “decreased efficacy as compared to 5-HT” value was found to be 1.6 fold and the “increased potency as compared to 5-HT” value was determined as 1.5 fold. Moreover, in data set [3], the “plasma glucose level vs. control” value is “did not influence the plasma glucose level”, the “plasma level of total cholesterol vs. control” value was “increased significantly” and the “plasma level of triglycerides vs. control” value is “increased significantly”. Further, the Ki in data set [4] is 0.6 nM. The “effect on liver, kidney and heart weight (% of total body weight)” value in data set [5] was “neither AZ-853 (0.625 mg/kg) nor AZ-861 (1.25 mg/kg) influenced”. Also, testing at 1 µM in data set [6] gave an inhibition of 2.5%. At 1 µM the inhibition in data set [7] was 94.8%. In addition, in data set [8], the “increase of plasma γ-GTP activity” value is listed as “approximately 435%” and the “plasma ALAT activity vs. control” value is on record as “did not lead to significant changes in ALAT activity”.

Turning to `Cn1c(=O)c2c(nc3n(CCCCN4CCN(c5cccc(C(F)(F)F)c5)CC4)ccn23)n(C)c1=O` [AZ-861, 1,3-dimethyl-8-(4-(4-(3-(trifluoromethyl)phenyl)piperazin-1-yl)butyl)-1H-imidazo[2,1-f]purine-2,4(3H,8H)-dione], the estimated log p in data set [1] is listed as 5.75. Also, in data set [2], a half-maximal response (EC50) required 1.15 nM, the maximal effect (Emax) was found to be 76 ± 1.3%, the “decreased efficacy as compared to 5-HT” value amounted to 1.3 fold and the “increased potency as compared to 5-HT” value worked out at 9.1 fold. Moreover, in data set [3], the “plasma glucose level vs. control” value is recorded as “did not influence the plasma glucose level”, the “plasma level of total cholesterol vs. control” value is given as “increased significantly” and the “plasma level of triglycerides vs. control” value is “increased significantly”. In addition, the Ki in data set [4] was 0.2 nM. Further, the “effect on liver, kidney and heart weight (% of total body weight)” value in data set [5] was “neither AZ-853 (0.625 mg/kg) nor AZ-861 (1.25 mg/kg) influenced”. The molecule also registered an inhibition at 1 µM in data set [6] of 0.17%. This molecule returned an inhibition at 1 µM in data set [7] of 99.8%. Besides, in data set [8], the “increase of plasma γ-GTP activity” value is “did not change activity” and the “plasma ALAT activity vs. control” value is “did not lead to significant changes in ALAT activity”.
